Among the data in PubChem BioAssay (NCI) are TGI and GI50 values, retold here.

SMILES strings stand for the structures. “And” between values parts separate entries of the source, which are not always exact repeats. Equal entries are not always repeated.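 Assay format: 96-well plates, 48-hour exposure. At the GI50, growth is halved. TGI marks complete inhibition of growth.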

Common to all, as to assay: growth of human tumour cells (NCI), 48 h
The subject of assay [1] is MALME-3M melanoma.
For assay [2], the system named is SK-OV-3 ovarian.
In assay [3] the test system is SK-MEL-2 melanoma.
In assay [4] the test system is OVCAR-5 ovarian.
Assay [5] relates to ACHN renal.
For assay [6], the system named is SW-620 colon.
The subject of assay [7] is HT29 colon.
The subject of assay [8] is SN12C renal.
Assay [9] concerns A549 NSCLC.
Assay [10] relates to MDA-MB-435.

Take `COC(=O)C1=CSC2(S1)C(C(=O)OC)=CSc1c2ssc1=Nc1ccccc1` (configuration not stated): the TGI in assay [1] stood at 4.95 µM; in assay [2], 9.9 µM; in assay [3], 7.36 µM; in assay [4], 17.7 µM; in assay [5], 6.57 µM; in assay [6], 8.76 µM. Moreover, the TGI stood at 5.85 µM in assay [7], 4.3 µM in assay [8], 14.6 µM in [9] and 5.09 µM in assay [10].
In the case of `COC(=O)c1c2n(c3ccccc13)C[C@H]1OC(C)(C)O[C@@H]21`, the TGI in [1] is greater than 87.6 µM; in assay [2] it was greater than 100 µM; in assay [3], greater than 100 µM; in assay [4], greater than 100 µM; in [5], greater than 100 µM; in assay [6] it was greater than 100 µM. In addition, the TGI in [7], in [8], in assay [9] and in [10] was greater than 100 µM throughout.
Turning to `CCC1(CC)CC(=NNS(=O)(=O)c2ccc(C)cc2)C1`, the TGI in assay [1], in assay [2], in [3], in [4], in assay [5] and in [6] was greater than 100 µM throughout. Besides, the TGI in assay [7], in assay [8], in assay [9] and in assay [10] was greater than 100 µM throughout.
As to `Cc1ccccc1N=Nc1ccc(N=Nc2c(O)ccc3ccccc23)c(C)c1`, the TGI in [1], in assay [2], in assay [3], in assay [4], in assay [5] and in [6] was greater than 100 µM in each case. The TGI in assay [7], in [8], in assay [9] and in assay [10] was greater than 100 µM each time.
As to `Cc1c2cc[n+](CCN3CCCCC3)cc2c(C)c2c1[nH]c1ccc(O)cc12`, the GI50 in [1] was 3.17 µM; in assay [2], 4.42 µM; in [3], 13.5 µM; in assay [4], 25.2 µM; in assay [6], 6.26 µM; in assay [7], 4.67 µM. In assay [8], the GI50 is 0.16 µM. The TGI is 25.9 µM and 19.2 µM in [1]; 33.9 µM and 31.2 µM in assay [2]; 35.5 µM and 36.3 µM in assay [3]; 62.4 µM and > 77.3 µM in [4]; 22.9 µM in assay [5]; 55.4 µM and > 71 µM in assay [6]. The TGI was 28 µM and 47.4 µM in [7]; 20.8 µM and 6.03 µM in assay [8]; 34.7 µM and 27.8 µM in [9]; 34.5 µM in assay [10].
As for `O=C(N=S(NC(=O)c1ccccc1)C(Cl)(Cl)Cl)c1ccccc1` (configuration not stated), the TGI is 37.9 µM in [1]; greater than 31.6 µM in assay [2]; 70.1 µM in [3]; 50.7 µM in assay [4]; 47.5 µM in [5]; 15.9 µM in assay [6]. Further, the TGI in [7] is 36.3 µM; in assay [8] it was 56.2 µM; in assay [9], greater than 100 µM; in [10] it was 47.4 µM.
As for `CC(C)[C@@H]1NC(=O)[C@H]2N=C(O[C@@H]2C)[C@@H]2CCCN2C(=O)[C@H](Cc2ccccc2)NC(=O)[C@@H]2CSC(=N2)[C@@H](Cc2ccccc2)NC(=O)[C@@H]2CSC1=N2`, the TGI in assay [1], in [2], in [3], in assay [4], in [5] and in assay [6] was greater than 50 µM in each case. In addition, the TGI in assay [7], in assay [8], in assay [9] and in assay [10] was greater than 50 µM each time.
Consider `CC1CC[C@@H](C(C)C)[C@H](Oc2nnc(C3OC(CO)C(O)C3O)o2)C1` (some centres not stated), for which the TGI in assay [1], in [2], in assay [3], in [4], in [5] and in [6] was greater than 100 µM each time. Also, the TGI in assay [7], in [8], in assay [9] and in assay [10] was greater than 100 µM throughout.
On to `COc1ccc(N2C(=O)C3c4[nH]c5ccc(C)cc5c4C4CCC(C)CC4C3C2=O)cc1` (configuration not stated), for which the TGI in assay [1], in assay [2], in [3], in assay [4], in assay [5] and in assay [6] was greater than 100 µM each time. Also, the TGI in assay [7], in [8], in [9] and in [10] was greater than 100 µM throughout.
Turning to `CC1=C2C(=O)c3ccccc3C(=O)[C@H]2[C@H]2CCO[C@H]2O1`, the TGI was 35.9 µM in [1]; greater than 100 µM in [2]; 36.6 µM in assay [3]; 49.2 µM in assay [4]; 45.5 µM in assay [5]; 53.1 µM in assay [6]. Moreover, the TGI is 95.2 µM in [7], 40.4 µM in assay [8], greater than 100 µM in [9] and 39.8 µM in assay [10].
`Fc1ccc2nc3n(c2c1)C(c1c(F)cccc1F)SC3` (configuration not stated): the TGI in assay [1], in assay [2], in assay [3], in [4], in assay [5] and in [6] was greater than 100 µM in each case. Moreover, the TGI in [7], in assay [8], in assay [9] and in [10] was greater than 100 µM throughout.
As to `CC(=O)OC1C(O)COC(O[C@H]2CC[C@]34C[C@]35CC[C@]3(C)C([C@@]6(C)CC[C@@H](C(C)(C)O)O6)[C@@H](O)C[C@@]3(C)C5C[C@H](OC3OCC(O)C(O)C3O)[C@H]4C2(C)C)C1OC1OCC(O)C(O)C1O` (some centres not stated), the TGI in assay [1], in assay [2], in assay [3], in assay [4], in assay [5] and in [6] was greater than 100 µM in each case. For the same compound, the TGI in assay [7], in assay [8], in assay [9] and in assay [10] was greater than 100 µM in each case.
Take `COc1ccc(NC2Oc3cc4c(cc3C(c3cccc(OC)c3OC)C2C)OCO4)cc1` (configuration not stated): the TGI in assay [1] is 82.3 µM; in [2] it was greater than 100 µM; in assay [3], 70.2 µM; in [4], greater than 100 µM; in assay [5], greater than 100 µM; in assay [6] it was greater than 100 µM. Further, the TGI in assay [7] was greater than 100 µM; in [8] it was greater than 100 µM; in [9] it was greater than 100 µM; in [10] it was 43.1 µM.
